Literature values as cited in patent publication US9426985B2, “Compositions and methods to modulate the rate of EBIS production from dithiocarbamate fungicides” (Dow Agrosciences LLC, priority 2012, dated 2016).

Tests used:
[1] = tomato leaves

Molecule	half-life on the leaf surface	time to peak EBIS levels after application [1]
S=C1SSC2=NCCN12 [EBIS, ethylene bisisthiocyanate sulfide]	less than 2 days	
mancozeb		about two
